Assay results published in US11299518B2, “Fusion respiratory syncytial virus inhibitors and use thereof” (priority 2016, dated 2022).

Tests used:
[1] = target: T1, chymotrypsin (Bos taurus, UniProt P00766); experiment: Proteolytic stability assay, chymotrypsin; type: in vitro ADME
T1 construct: purchased Thermo Fisher Scientific
Experimental: (§1) The compounds according to the invention are tested for their stability in a proteolytic stability assay as described below which is an important parameter to assess for the development of peptide therapeutics. Peptides of the invention 4bb, 4ca, 4a and their unstapled comparative peptide 4, as well as both SAH-RSVFBD isomers were treated with chymotrypsin and trypsin, and analysed by LC/MS to quantify the reaction products over time.
(§2) In vitro proteolytic degradation was measured via LC-MS using an Agilent Infinity 1280 UHPLC system coupled to an Agilent quadruple-time-of-flight (QTOF) 6530 with an Agilent Jet Stream electrospray ionisation (AJS ESI) source (all Agilent Technologies, Waldbronn, Germany). 5 μl of digested sample were injected onto a C18 column (Zorbax Eclipse Plus RRHD, 1.8 μm, 2.1*100 mm, Agilent Technologies, Waldbronn, Germany) equilibrated with solvent A and eluted with a flow rate of 0.4 ml/min over a 5-95% gradient of solvent B in 5 minutes, followed by 1.5 minutes at 95% and 0.5 minutes post-time where solvent A was 95% water, 5% acetonitrile with 0.2% formic acid and solvent B was 5% water, 95% acetonitrile with 0.2% formic acid. The AJS ESI source was operated with a capillary voltage of 4000V and a nozzle voltage of 600V with a drying gas temperature of 325° C. and flow rate of 10 l/min, nebulising gas pressure of 20 psi, and a sheath gas temperature of 300° C. and flow rate of 11l/min. Mass spectra were acquired in the positive ion mode from 100-3200 m/z at a rate of 1 scan per second in extended dynamic range (2 GHz) mode. The fragmentor, skimmer and octopole Radio Frequency voltages were set to 200, 60 and 750 V respectively. Data were acquired and analysed with Agilent MassHunter Workstation (version B.05).
(§3) Peptide digestion was performed as it follows: 10 μl of peptide at 0.29 mM in 50/50 acetonitrile/water were dissolved in 990 μl 100 mM Tris-HCl, pH 8.0 with 10 mM CaCl2. Following measurement of the undigested (to) sample, 10 μl of chymotrypsin at 50 μg/ml in 100 mM Tris-HCl, pH 8.0 with 10 mM CaCl2 were added and the sample was vortexed and placed immediately in the autosampler, set to 25° C. Trypsin digestion was performed as with chymotrypsin except that the buffer was in 50 mM Tris-HCl, pH8. Chymotrypsin and trypsin were purchased from Thermo Fisher Scientific.
(§4) The level of intact peptide was quantified by serial injection over time. Integration of the intact peptide compound chromatogram was performed using the Agilent Molecular Feature Extraction (MFE) algorithm. A plot of the intact peptide MFE peak area over time gave an exponential decay curve, from which the half-life was determined using MatLab […].

[2] = Proteolytic stability assay, trypsin; type: in vitro ADME; settings: trypsin (isolated protease), pH 8; 50 mM Tris-HCl pH8, 25° C., LC-MS; read-out: t1/2 (min) Trypsin
Experimental: as §1, §2, §3, §4

Ac-EKINQSLAFIRKSDELLHNV-NH2 (N-terminus and C-terminus assumed) [Peptide 4, reference compound]
half-life at 2.9 µM ([1]; chymotrypsin (isolated protease), 100 mM Tris-HCl pH 8.0, 10 mM CaCl2, 25° C., LC-MS, read-out: t1/2 (min) Chymotrypsin): 4.5 min
time to full degradation ([1]; treated with chymotrypsin and trypsin): 10 min
half-life [2]: 5 min
